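Results reflect a 48-hour exposure of cells in 96-well plates to compound at five concentrations. GI50: concentration for 50% inhibition of growth. TGI: total growth inhibition.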
Tests used:
Test in all cases: inhibition of tumour cell growth, NCI panel, 48 h
786-0 renal = tested on: 786-0 renal
A498 renal = tested on: A498 renal
A549 NSCLC = tested on: A549 NSCLC
ACHN renal = tested on: ACHN renal
BT-549 breast = tested on: BT-549 breast
CAKI-1 renal = tested on: CAKI-1 renal
CCRF-CEM leukemia = tested on: CCRF-CEM leukemia
COLO 205 colon = tested on: COLO 205 colon
DU-145 prostate = tested on: DU-145 prostate
EKVX NSCLC = tested on: EKVX NSCLC
HCC-2998 colon = tested on: HCC-2998 colon
HCT-116 colon = tested on: HCT-116 colon
HCT-15 colon = tested on: HCT-15 colon
HL-60(TB) leukemia = tested on: HL-60(TB) leukemia
HOP-62 NSCLC = tested on: HOP-62 NSCLC
HOP-92 NSCLC = tested on: HOP-92 NSCLC
HS 578T breast = tested on: HS 578T breast
HT29 colon = tested on: HT29 colon
IGROV1 ovarian = tested on: IGROV1 ovarian
K-562 leukemia = tested on: K-562 leukemia
KM12 colon = tested on: KM12 colon
LOX IMVI melanoma = tested on: LOX IMVI melanoma
M14 melanoma = tested on: M14 melanoma
MALME-3M melanoma = tested on: MALME-3M melanoma
MCF7 breast = tested on: MCF7 breast
MDA-MB-231 breast = tested on: MDA-MB-231 breast
MDA-MB-435 = tested on: MDA-MB-435
MDA-MB-468 breast = tested on: MDA-MB-468 breast
MOLT-4 leukemia = tested on: MOLT-4 leukemia
NCI-H226 lung = tested on: NCI-H226 lung
NCI-H23 lung = tested on: NCI-H23 lung
NCI-H460 lung = tested on: NCI-H460 lung
NCI-H522 lung = tested on: NCI-H522 lung
OVCAR-3 ovarian = tested on: OVCAR-3 ovarian
OVCAR-4 ovarian = tested on: OVCAR-4 ovarian
OVCAR-5 ovarian = tested on: OVCAR-5 ovarian
OVCAR-8 ovarian = tested on: OVCAR-8 ovarian
PC-3 prostate = tested on: PC-3 prostate
RPMI-8226 leukemia = tested on: RPMI-8226 leukemia
RXF 393 renal = tested on: RXF 393 renal
SF-268 CNS = tested on: SF-268 CNS
SF-295 CNS = tested on: SF-295 CNS
SF-539 CNS = tested on: SF-539 CNS
SK-MEL-2 melanoma = tested on: SK-MEL-2 melanoma
SK-MEL-28 melanoma = tested on: SK-MEL-28 melanoma
SK-MEL-5 melanoma = tested on: SK-MEL-5 melanoma
SK-OV-3 ovarian = tested on: SK-OV-3 ovarian
SN12C renal = tested on: SN12C renal
SNB-19 CNS = tested on: SNB-19 CNS
SNB-75 CNS = tested on: SNB-75 CNS
SR leukemia = tested on: SR leukemia
SW-620 colon = tested on: SW-620 colon
T-47D breast = tested on: T-47D breast
TK-10 renal = tested on: TK-10 renal
U251 CNS = tested on: U251 CNS
UACC-257 melanoma = tested on: UACC-257 melanoma
UACC-62 melanoma = tested on: UACC-62 melanoma
UO-31 renal = tested on: UO-31 renal

`O=C(Nc1ccc(F)c(Cl)c1)c1cc(-c2ccc(F)cc2F)ccc1O` showed a GI50 (786-0 renal) of 2.75 µM, a TGI (786-0 renal) of 9.2 µM and a GI50 (A498 renal) of 2.27 µM. The TGI (A498 renal) was 6.31 µM, the GI50 (A549 NSCLC) was 2.95 µM and the TGI (A549 NSCLC) was 15.1 µM. For the same compound, the GI50 (ACHN renal) was 2.42 µM, the TGI (ACHN renal) was 10.3 µM and the GI50 (BT-549 breast) was 1.59 µM. For the same compound, the TGI (BT-549 breast) was 4.05 µM, the GI50 (CAKI-1 renal) was 1.5 µM and the TGI (CAKI-1 renal) was 4.97 µM. The GI50 (CCRF-CEM leukemia) was 3.34 µM, the TGI (CCRF-CEM leukemia) was > 100 µM and the GI50 (COLO 205 colon) was 5.11 µM. The TGI (COLO 205 colon) was 17.6 µM, the GI50 (DU-145 prostate) was 3.01 µM and the TGI (DU-145 prostate) was > 100 µM. It also gave a GI50 (EKVX NSCLC) of 2.71 µM, a TGI (EKVX NSCLC) of 12.7 µM and a GI50 (HCC-2998 colon) of 3.28 µM. For the same compound, the TGI (HCC-2998 colon) was 11.6 µM, the GI50 (HCT-116 colon) was 2.04 µM and the TGI (HCT-116 colon) was 5.62 µM. It also gave a GI50 (HCT-15 colon) of 2.31 µM, a TGI (HCT-15 colon) of 10.2 µM and a GI50 (HL-60(TB) leukemia) of 1.78 µM. The TGI (HL-60(TB) leukemia) was 4.44 µM, the GI50 (HOP-62 NSCLC) was 2.24 µM and the TGI (HOP-62 NSCLC) was 5.38 µM. The GI50 (HOP-92 NSCLC) was 1.56 µM, the TGI (HOP-92 NSCLC) was 5.45 µM and the GI50 (HS 578T breast) was 1.93 µM. The TGI (HS 578T breast) was 6.55 µM, the GI50 (HT29 colon) was 4.79 µM and the TGI (HT29 colon) was 26.8 µM. For the same compound, the GI50 (IGROV1 ovarian) was 3.25 µM, the TGI (IGROV1 ovarian) was 27 µM and the GI50 (K-562 leukemia) was 2.01 µM. The TGI (K-562 leukemia) was 11.9 µM, the GI50 (KM12 colon) was 2.57 µM and the TGI (KM12 colon) was 6.83 µM. The GI50 (LOX IMVI melanoma) was 2.89 µM, the TGI (LOX IMVI melanoma) was 8.25 µM and the GI50 (M14 melanoma) was 2.3 µM. The TGI (M14 melanoma) was 6.88 µM, the GI50 (MALME-3M melanoma) was 1.91 µM and the TGI (MALME-3M melanoma) was 5.3 µM. For the same compound, the GI50 (MCF7 breast) was 2.48 µM, the TGI (MCF7 breast) was 13.9 µM and the GI50 (MDA-MB-231 breast) was 1.96 µM. It also gave a TGI (MDA-MB-231 breast) of 4.62 µM, a GI50 (MDA-MB-435) of 2.17 µM and a TGI (MDA-MB-435) of 7.05 µM. It also gave a GI50 (MDA-MB-468 breast) of 2.1 µM, a TGI (MDA-MB-468 breast) of 5.51 µM and a GI50 (MOLT-4 leukemia) of 1.77 µM. For the same compound, the TGI (MOLT-4 leukemia) was 5.47 µM, the GI50 (NCI-H226 lung) was 2.1 µM and the TGI (NCI-H226 lung) was 7 µM. The GI50 (NCI-H23 lung) was 1.69 µM, the TGI (NCI-H23 lung) was 4.8 µM and the GI50 (NCI-H460 lung) was 2.19 µM. It also gave a TGI (NCI-H460 lung) of 8.82 µM, a GI50 (NCI-H522 lung) of 1.74 µM and a TGI (NCI-H522 lung) of 7.65 µM. The GI50 (OVCAR-3 ovarian) was 2.98 µM, the TGI (OVCAR-3 ovarian) was 12.9 µM and the GI50 (OVCAR-4 ovarian) was 2.49 µM. The TGI (OVCAR-4 ovarian) was 15.2 µM, the GI50 (OVCAR-5 ovarian) was 3.39 µM and the TGI (OVCAR-5 ovarian) was 38.9 µM. It also gave a GI50 (OVCAR-8 ovarian) of 3.1 µM, a TGI (OVCAR-8 ovarian) of 13.3 µM and a GI50 (PC-3 prostate) of 3.08 µM. The TGI (PC-3 prostate) was 13.4 µM, the GI50 (RPMI-8226 leukemia) was 1.67 µM and the TGI (RPMI-8226 leukemia) was 9.57 µM. It also gave a GI50 (RXF 393 renal) of 1.65 µM, a TGI (RXF 393 renal) of 5.45 µM and a GI50 (SF-268 CNS) of 2.23 µM. It also gave a TGI (SF-268 CNS) of 9.68 µM, a GI50 (SF-295 CNS) of 2.42 µM and a TGI (SF-295 CNS) of 6.2 µM. The GI50 (SF-539 CNS) was 2.58 µM, the TGI (SF-539 CNS) was 10.6 µM and the GI50 (SK-MEL-2 melanoma) was 1.4 µM. The TGI (SK-MEL-2 melanoma) was 3.71 µM, the GI50 (SK-MEL-28 melanoma) was 2.2 µM and the TGI (SK-MEL-28 melanoma) was 9.94 µM. It also gave a GI50 (SK-MEL-5 melanoma) of 0.832 µM, a TGI (SK-MEL-5 melanoma) of 2.21 µM and a GI50 (SK-OV-3 ovarian) of 2.06 µM. For the same compound, the TGI (SK-OV-3 ovarian) was 6.07 µM, the GI50 (SN12C renal) was 2.18 µM and the TGI (SN12C renal) was 8.26 µM. It also gave a GI50 (SNB-19 CNS) of 2.95 µM, a TGI (SNB-19 CNS) of 19.1 µM and a GI50 (SNB-75 CNS) of 1.05 µM. It also gave a TGI (SNB-75 CNS) of 4.68 µM, a GI50 (SR leukemia) of 2.39 µM and a TGI (SR leukemia) of 9.53 µM. For the same compound, the GI50 (SW-620 colon) was 3.05 µM, the TGI (SW-620 colon) was 11.9 µM and the GI50 (T-47D breast) was 1.86 µM. The TGI (T-47D breast) was 6.61 µM, the GI50 (TK-10 renal) was 3.57 µM and the TGI (TK-10 renal) was 13.5 µM. The GI50 (U251 CNS) was 3.01 µM, the TGI (U251 CNS) was 12.5 µM and the GI50 (UACC-257 melanoma) was 1.67 µM. It also gave a TGI (UACC-257 melanoma) of 6.15 µM, a GI50 (UACC-62 melanoma) of 1.29 µM and a TGI (UACC-62 melanoma) of 3.72 µM. For the same compound, the GI50 (UO-31 renal) was 2.49 µM and the TGI (UO-31 renal) was 12.3 µM.
